In EP0083683A1, “Method of preparing 1,4-bis(substituted-amino)-5,8-dihydroxyanthraquinones and pharmaceutical compositions containing them” (AMERICAN CYANAMID COMPANY, priority 1981, dated 1983):

Tests used:
[1] = test system: melanotic melanoma B16; assay: Melanotic Melanoma B16 test; assay type: in vivo, BDF1 mice
Experimental: The animals used are BDF1 mice, all of the same sex, weighing a minimum of 17 g. and all within a 3 g. weight range. There are normally 10 animals per test group. A one-gram portion of melanotic melanoma B16 tumor is homogenized in 10 ml. of cold balanced salt solution and a 0.5 ml. aliquot of the homogenate is implanted intraperitoneally into each of the test mice. The test compounds are administered intraperitoneally on days one through 9 (relative to tumor inoculation) at various doses. The animals are weighed and survivors are recorded on a regular basis for 60 days. The median survival time and the ratio of survival time for treated (T)/control (C) animals are calculated. The positive control compound is 5-fluorouracil given as a 20 mg./kg. injection. The criterion for efficacy is T/C x 100 >125%.

[2] = test system: lymphocytic leukemia P388; assay: Lymphocytic leukemia P388 test; assay type: in vivo, DBA/2 mice
Experimental: The animals used are DBA/2 mice all of one sex, weighing a minimum of 17 g. and all within a 3 g. weight range. There are 5 or 6 animals per test group. The tumor transplant is by intraperitoneal injection of 0.5 ml. of dilute ascitic fluid containing 10^6 cells of lymphocytic leukemia P388. The test compounds are administered intraperitoneally on days one, 5 and 9 (relative to tumor inoculation) at various doses. […] The median survival time and the ratio of survival time for treated (T)/control (C) animals are calculated. The positive control compound is 5-fluorouracil given as a 60 mg./kg. injection. The results of this test with representative compounds of the present invention appear in Table I. The criterion for efficacy is T/C x 100>125%.

[3] = positive control, dose 20.0 mg./kg.
[4] = 1st test, positive control, dose 60 mg./kg.
[5] = 2nd test, positive control, dose 60 mg./kg.
[6] = dose 0.09 mg./kg. intraperitoneally on days one through 9
[7] = dose 0.19 mg./kg. intraperitoneally on days one through 9
[8] = dose 0.37 mg./kg. intraperitoneally on days one through 9
[9] = dose 0.75 mg./kg. intraperitoneally on days one through 9
[10] = dose 1.5 mg./kg. intraperitoneally on days one through 9
[11] = 1st test, dose 0.78 mg./kg. intraperitoneally on days 1, 5 and 9
[12] = 1st test, dose 1.56 mg./kg. intraperitoneally on days 1, 5 and 9
[13] = 1st test, dose 3.12 mg./kg. intraperitoneally on days 1, 5 and 9
[14] = 1st test, dose 6.25 mg./kg. intraperitoneally on days 1, 5 and 9
[15] = 2nd test, dose 0.10 mg./kg. intraperitoneally on days 1, 5 and 9
[16] = 2nd test, dose 0.19 mg./kg. intraperitoneally on days 1, 5 and 9
[17] = 2nd test, dose 0.39 mg./kg. intraperitoneally on days 1, 5 and 9
[18] = 2nd test, dose 0.78 mg./kg. intraperitoneally on days 1, 5 and 9
[19] = 2nd test, dose 1.56 mg./kg. intraperitoneally on days 1, 5 and 9
[20] = 2nd test, dose 3.12 mg./kg. intraperitoneally on days 1, 5 and 9
[21] = 2nd test, dose 6.25 mg./kg. intraperitoneally on days 1, 5 and 9

Compound: O=c1[nH]cc(F)c(=O)[nH]1 [5-Fluorouracil, 5-fluorouracil, reference compound]
- Median Survival Time [1, 3]: 26.0 days
- T/C x 100 (Percent) [1, 3]: 137%
- Median Survival Time [2, 4]: 21.0 days
- T/C x 100 (Percent) [2, 4]: 191%
- Median Survival Time [2, 5]: 21.5 days
- T/C x 100 (Percent) [2, 5]: 195%

Compound: O=C1c2c(O)ccc(O)c2C(=O)c2c(NCCN3CCOC3)ccc(NCCN3CCOC3)c21 [l,4-Dihydroxy-5,8-bis[[2-(3-oxazolidinyl)ethyl]amino]-anthraquinone]
- Median Survival Time [1, 6]: 29.0 days
- T/C x 100 (Percent) [1, 6]: 153%
- Median Survival Time [1, 7]: 31.0 days
- T/C x 100 (Percent) [1, 7]: 163%
- Median Survival Time [1, 8]: 49.5 days
- T/C x 100 (Percent) [1, 8]: 260%
- Median Survival Time [1, 9]: 46.0 days
- T/C x 100 (Percent) [1, 9]: 242%
- Median Survival Time [1, 10]: 55.5 days
- T/C x 100 (Percent) [1, 10]: 292%
- Median Survival Time [2, 11]: 23.0 days
- T/C x 100 (Percent) [2, 11]: 209%
- Median Survival Time [2, 12]: 23.5 days
- T/C x 100 (Percent) [2, 12]: 214%
- "Cures" = number of survivors/total at 60 days [2, 13]: 1/6
- Median Survival Time [2, 13]: 29.5 days
- T/C x 100 (Percent) [2, 13]: 268%
- "Cures" = number of survivors/total at 60 days [2, 14]: 2/6
- Median Survival Time [2, 14]: >30.0 days
- T/C x 100 (Percent) [2, 14]: >273%
- Median Survival Time [2, 15]: 19.5 days
- T/C x 100 (Percent) [2, 15]: 177%
- Median Survival Time [2, 16]: 23.5 days
- T/C x 100 (Percent) [2, 16]: 214%
- Median Survival Time [2, 17]: 23.5 days
- T/C x 100 (Percent) [2, 17]: 214%
- Median Survival Time [2, 18]: 22.0 days
- T/C x 100 (Percent) [2, 18]: 200%
- "Cures" = number of survivors/total at 60 days [2, 19]: 1/6
- Median Survival Time [2, 19]: 30.0 days
- T/C x 100 (Percent) [2, 19]: 273%
- Median Survival Time [2, 20]: >30.0 days
- T/C x 100 (Percent) [2, 20]: >273%
- Median Survival Time [2, 21]: 14.0 days
- T/C x 100 (Percent) [2, 21]: 127%
